For test [1], the target named is recombinant poly(ADP-ribose) polymerase 2 (PARP2). Nature of the test: PARP2 chemiluminescent assay. Type of test: biochemical. As to conditions: inhibition of PARP2 enzyme activity, chemiluminescence.
Another test deals with MDA-MB-436 cells. Nature of the test: Growth inhibition assay against BRCA mutant human breast cancer MDA-MB-436 cell line (CCK-8). As to conditions: proliferation of MDA-MB-436 cells, 7 days. In kind it is cell-based.
For test [2], the target named is recombinant poly(ADP-ribose) polymerase 1 (PARP1) (Homo sapiens (Human), UniProt P09874).
Sequence of recombinant poly(ADP-ribose) polymerase 1 (PARP1) (P09874 whole entry): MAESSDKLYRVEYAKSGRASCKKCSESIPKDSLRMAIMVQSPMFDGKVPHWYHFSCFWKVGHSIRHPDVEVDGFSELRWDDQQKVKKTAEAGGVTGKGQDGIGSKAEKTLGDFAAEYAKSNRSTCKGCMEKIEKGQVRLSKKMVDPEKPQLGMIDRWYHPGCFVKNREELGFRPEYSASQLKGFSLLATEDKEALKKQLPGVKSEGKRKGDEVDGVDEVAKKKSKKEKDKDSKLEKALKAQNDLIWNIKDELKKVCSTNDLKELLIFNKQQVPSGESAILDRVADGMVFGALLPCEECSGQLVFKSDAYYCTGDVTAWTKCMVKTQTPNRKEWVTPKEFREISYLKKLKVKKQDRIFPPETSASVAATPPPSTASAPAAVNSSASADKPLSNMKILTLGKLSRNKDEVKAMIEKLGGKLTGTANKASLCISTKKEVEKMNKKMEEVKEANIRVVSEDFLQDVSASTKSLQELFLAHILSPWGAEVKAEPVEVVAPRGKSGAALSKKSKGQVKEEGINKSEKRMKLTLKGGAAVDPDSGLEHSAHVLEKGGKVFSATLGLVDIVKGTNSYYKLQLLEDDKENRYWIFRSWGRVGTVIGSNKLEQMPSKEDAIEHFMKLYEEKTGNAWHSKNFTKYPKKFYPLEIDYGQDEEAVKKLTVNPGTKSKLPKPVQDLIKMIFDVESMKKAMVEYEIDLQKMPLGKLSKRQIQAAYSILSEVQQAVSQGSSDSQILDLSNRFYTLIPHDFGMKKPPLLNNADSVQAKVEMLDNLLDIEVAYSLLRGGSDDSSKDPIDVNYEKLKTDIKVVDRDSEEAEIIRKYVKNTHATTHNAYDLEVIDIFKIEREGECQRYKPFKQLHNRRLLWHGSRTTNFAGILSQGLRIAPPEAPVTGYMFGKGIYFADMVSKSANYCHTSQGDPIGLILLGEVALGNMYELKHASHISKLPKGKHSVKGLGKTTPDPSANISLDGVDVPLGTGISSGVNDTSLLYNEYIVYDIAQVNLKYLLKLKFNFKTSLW

Consider `CCNC(=O)c1ccc(N2CCN(Cc3ccc4c([nH]c(=O)n5ccnc45)c3F)CC2)c(F)n1` [Example 62, 8-((4-(2-fluoro-6-(ethylcarbamoyl)pyridin-3-yl)piperazin-1-yl)methyl)-7-fluoroimidazo[1,2-c]quinazolin-5(6H)-one], for which the IC50 in test [1] is > 10000 nM; in the test with MDA-MB-436 cells (Homo sapiens, MDA-MB-436, […]), 46.7 nM; in test [2], 3.49 nM.
The corresponding values for `CNC(=O)c1ccc(N2CCN(Cc3cc4[nH]c(=O)n5nccc5c4cc3F)CC2)c(F)n1` [Example 120, 8-((4-(2-fluoro-6-(methylcarbamoyl)pyridin-3-yl)piperazin-1-yl)methyl)-9-fluoropyrazolo[1,5-c]quinazolin-5(6H)-one] are 683 nM, 23.6 nM and 1.87 nM.
In the case of `CNC(=O)c1ccc(N2CCN(Cc3ccc4c([nH]c(=O)c5c(C)cnn54)c3F)CC2)cn1` [Example 153, 6-fluoro-3-methyl-7-((4-(6-(methylcarbamoyl)pyridin-3-yl)piperazin-1-yl)methyl)pyrazolo[1,5-a]quinoxalin-4(5H)-one], the IC50 with MDA-MB-436 cells (Homo sapiens, MDA-MB-436, […]) turned out to be 23.6 nM.
The same measure, in the same setting: the value for `CNC(=O)c1ccc(N[C@@H]2CCN(Cc3ccc4c([nH]c(=O)c5c(C)cnn54)c3F)C2)c(F)n1` [Example 135, (R)-6-fluoro-7-((3-((2-fluoro-6-(methylcarbamoyl)pyridin-3-yl)amino)pyrrolidin-1-yl)methyl)-3-methylpyrazolo[1,5-a]quinoxalin-4(5H)-one] was > 100 nM.
Still for that read-out and setting: as for `CNC(=O)c1ccc(N2CCN(Cc3ccc4c([nH]c(=O)c5c(C)cnn54)c3Cl)CC2)c(C)n1` [Example 175, 6-chloro-7-((4-(2-methyl-6-(methylcarbamoyl)pyridin-3-yl)piperazin-1-yl)methyl)-3-methylpyrazolo[1,5-a]quinoxalin-4(5H)-one], the figure is > 100 nM.
With `Cc1cnn2c1c(=O)[nH]c1c(F)c(CN3CCN(c4ccc(C#N)nc4F)CC3)ccc12` [Example 164, 6-fluoro-7-((4-(2-fluoro-6-cyanopyridin-3-yl)piperazin-1-yl)methyl)-3-methylpyrazolo[1,5-a]quinoxalin-4(5H)-one], in the test on MDA-MB-436 cells (Homo sapiens, MDA-MB-436, […]), the IC50 is 71.3 nM.
`CNC(=O)c1ccc(N2CCN(Cc3ccc4c([nH]c(=O)c5c(C)noc54)c3F)CC2)c(F)n1` [Example 96, 7-((4-(2-fluoro-6-(methylcarbamoyl)pyridin-3-yl)piperazin-1-yl)methyl)-3-methyl-6-fluoroisoxazolo[4,5-c]quinolin-4(5H)-one]: the midpoint of inhibition in the test with MDA-MB-436 cells (Homo sapiens, MDA-MB-436, […]), the IC50, lay at 36.7 nM.
In the test with MDA-MB-436 cells (Homo sapiens, MDA-MB-436, […]), `CNC(=O)c1ccc(N2CCN(Cc3ccc4c(c3)[nH]c(=O)c3nocc34)CC2)c(F)n1` [Example 144, 7-((4-(2-fluoro-6-(methylcarbamoyl)pyridin-3-yl)piperazin-1-yl)methyl)isoxazolo[3,4-c]quinolin-4(5H)-one] displayed an IC50 of 1.9 nM.
Still for that read-out and setting: the value for `CNC(=O)c1ccc(N2CCN(Cc3ccc4c([nH]c(=O)c5occc54)c3F)CC2)c(C(F)F)n1` [Example 101, 7-((4-(2-(difluoromethyl)-6-(methylcarbamoyl)pyridin-3-yl)piperazin-1-yl)methyl)-6-fluorofuro[2,3-c]quinolin-4(5H)-one] was 23 nM; that for `CNC(=O)c1ncc(N2CCN(Cc3ccc4c([nH]c(=O)c5c(C)cnn54)c3F)CC2)cc1F` [Example 127, 7-((4-(5-fluoro-6-(methylcarbamoyl)pyridin-3-yl)piperazin-1-yl)methyl)-6-fluoro-3-methylpyrazolo[1,5-a]quinoxalin-4(5H)-one] was 55.3 nM.
Molecule `CNC(=O)c1ccc(N2CCN(Cc3ccc4c([nH]c(=O)c5c(F)cnn54)c3F)CC2)c(F)n1` [Example 188, 7-((4-(2-fluoro-6-(methylcarbamoyl)pyridin-3-yl)piperazin-1-yl)methyl)-3,6-difluoropyrazolo[1,5-a]quinoxalin-4(5H)-one] showed an IC50 with MDA-MB-436 cells of 5.27 nM.
Turning to `CNC(=O)c1ccc(N2CCN(Cc3ccc4c([nH]c(=O)c5cncn54)c3F)CC2)cn1` [Example 145, 7-((4-(6-(methylcarbamoyl)pyridin-3-yl)piperazin-1-yl)methyl)-6-fluoroimidazo[1,5-a]quinoxalin-4(5H)-one], in the test on MDA-MB-436 cells (Homo sapiens, MDA-MB-436, […]), the IC50 is > 100 nM.
On the same count and under the same terms, the value for `CNC(=O)c1ccc(N2CCN(Cc3ccc4c([nH]c(=O)c5c(C)cnn54)c3F)CC2)c(Cl)c1` [Example 155, 6-fluoro-7-((4-(2-chloro-4-(methylcarbamoyl)phenyl)piperazin-1-yl)methyl)-3-methylpyrazolo[1,5-a]quinoxalin-4(5H)-one] was 66.5 nM; that for `CNC(=O)c1ccc(N2CCN(Cc3ccc4c([nH]c(=O)c5c(C)cnn54)c3F)CC2)cc1F` [Example 161, 6-fluoro-7-((4-(3-fluoro-4-(methylcarbamoyl)phenyl)piperazin-1-yl)methyl)-3-methylpyrazolo[1,5-a]quinoxalin-4(5H)-one] was > 100 nM; that for `CNC(=O)c1ccc(N2CCN(Cc3ccc4c([nH]c(=O)c5cocc54)c3F)CC2)cn1` [Example 149, 6-fluoro-7-((4-(6-(methylcarbamoyl)pyridin-3-yl)piperazin-1-yl)methyl)furo[3,4-c]quinolin-4(5H)-one] was 74.5 nM.
On the same count and under the same terms, the value for `CNC(=O)c1ccc(N2CCN(Cc3ccc4c([nH]c(=O)c5ccoc54)c3F)CC2)cn1` [Example 150, 6-fluoro-7-((4-(6-(methylcarbamoyl)pyridin-3-yl)piperazin-1-yl)methyl)furo[3,2-c]quinolin-4(5H)-one] was 11.5 nM; that for `CNC(=O)c1ccc(N2CCN(Cc3ccc4c([nH]c(=O)c5c(C)cnn54)c3F)CC2)c(C)c1` [Example 162, 6-fluoro-7-((4-(2-methyl-4-(methylcarbamoyl)phenyl)piperazin-1-yl)methyl)-3-methylpyrazolo[1,5-a]quinoxalin-4(5H)-one] was 20.1 nM; that for `CNC(=O)c1ccc(N2CCN(Cc3ccc4c([nH]c(=O)c5ncn(C)c54)c3F)CC2)c(F)n1` [Example 100, 7-((4-(2-fluoro-6-(methylcarbamoyl)pyridin-3-yl)piperazin-1-yl)methyl)-6-fluoro-1-methyl-1,5-dihydro-4H-imidazo[4,5-c]quinolin-4-one] was > 100 nM.
For `CNC(=O)c1ccc(N2CCN(Cc3ccc4c(c3)[nH]c(=O)c3ncsc34)CC2)c(C)n1` [Example 4, 7-((4-(2-methyl-6-(methylcarbamoyl)pyridin-3-yl)piperazin-1-yl)methyl)thiazolo[4,5-c]quinolin-4(5H)-one], in the test on MDA-MB-436 cells (Homo sapiens, MDA-MB-436, […]), the IC50 was determined as 7.69 nM.
On the same count and under the same terms, as for `CNC(=O)c1ccc(N2CCN(Cc3ccc4c([nH]c(=O)c5c(F)cnn54)c3Cl)CC2)c(C)n1` [Example 193, 3-fluoro-7-((4-(2-methyl-6-(methylcarbamoyl)pyridin-3-yl)piperazin-1-yl)methyl)-6-chloropyrazolo[1,5-a]quinoxalin-4(5H)-one], the figure is 39.7 nM; as for `CNC(=O)c1ccc(N2CCN(Cc3cc4[nH]c(=O)c5c(C)cnn5c4cc3F)CC2)c(C)n1` [Example 169, 8-fluoro-7-((4-(2-methyl-6-(methylcarbamoyl)pyridin-3-yl)piperazin-1-yl)methyl)-3-methylpyrazolo[1,5-a]quinoxalin-4(5H)-one], 20.3 nM.
Same read-out and setting: the value for `CNC(=O)c1ccc(N2CCN(Cc3ccc4c([nH]c(=O)c5cn(C)nc54)c3F)CC2)c(F)n1` [Example 90, 7-((4-(2-fluoro-6-(methylcarbamoyl)pyridin-3-yl)piperazin-1-yl)methyl)-6-fluoro-2-methyl-2,5-dihydro-4H-pyrazolo[4,3-c]quinolin-4-one] was 28.7 nM.
Still for that read-out and setting: the value for `CNC(=O)c1ccc(N2CCN(Cc3ccc4c(c3)[nH]c(=O)c3n[nH]cc34)CC2)c(C)n1` [Example 70, 7-((4-(2-methyl-6-(methylcarbamoyl)pyridin-3-yl)piperazin-1-yl)methyl)-2,5-dihydro-4H-pyrazolo[3,4-c]quinolin-4-one] was 28.9 nM.
In the case of `CNC(=O)c1ccc(N[C@@H]2CCN(Cc3ccc4c([nH]c(=O)c5occc54)c3F)C2)cn1` [Example 146, (R)-7-((3-((6-(methylcarbamoyl)pyridin-3-yl)amino)pyrrolidin-1-yl)methyl)-6-fluorofuro[2,3-c]quinolin-4(5H)-one], in the test on MDA-MB-436 cells (Homo sapiens, MDA-MB-436, […]), the IC50 was > 100 nM.
In turn, `CNC(=O)c1ccc(N2CCN(Cc3ccc4c([nH]c(=O)c5c(C)cnn54)c3C)CC2)c(C)n1` [Example 172, 7-((4-(2-methyl-6-(methylcarbamoyl)pyridin-3-yl)piperazin-1-yl)methyl)-3,6-dimethylpyrazolo[1,5-a]quinoxalin-4(5H)-one] registered an IC50 in the test with MDA-MB-436 cells (Homo sapiens, MDA-MB-436, […]) of 42.5 nM.
The same measure, in the same setting: the value for `NC(=O)c1ccc(N2CCN(Cc3ccc4c([nH]c(=O)c5occc54)c3F)CC2)c(F)n1` [Example 106, 7-((4-(2-fluoro-6-carbamoylpyridin-3-yl)piperazin-1-yl)methyl)-6-fluorofuro[2,3-c]quinolin-4(5H)-one] was 17.5 nM; that for `CNC(=O)c1ccc(N2CCN(Cc3ccc4c([nH]c(=O)c5c(C)cnn54)c3C)CC2)c(Cl)n1` [Example 173, 7-((4-(2-chloro-6-(methylcarbamoyl)pyridin-3-yl)piperazin-1-yl)methyl)-3,6-dimethylpyrazolo[1,5-a]quinoxalin-4(5H)-one] was 23.2 nM.
Same read-out and setting: the value for `CNC(=O)c1ccc(N2CCN(Cc3ccc4c([nH]c(=O)c5occc54)c3Cl)CC2)c(F)n1` [Example 105, 7-((4-(2-fluoro-6-(methylcarbamoyl)pyridin-3-yl)piperazin-1-yl)methyl)-6-chlorofuro[2,3-c]quinolin-4(5H)-one] was > 100 nM; that for `CNC(=O)c1ccc(N2CCN(Cc3ccc4c(c3)[nH]c(=O)c3cc[nH]c34)CC2)c(C)n1` [Example 23, 7-((4-(2-methyl-6-(methylcarbamoyl)pyridin-3-yl)piperazin-1-yl)methyl)-1,5-dihydro-4H-pyrrolo[3,2-c]quinolin-4-one] was 1.74 nM.
Still for that read-out and setting: the value for `CNc1nccc2cc(N3CCN(Cc4ccc5c([nH]c(=O)c6c(C)cnn65)c4F)CC3)cnc12` [Example 157, 6-fluoro-3-methyl-7-((4-(8-(methylamino)-1,7-naphthyridin-3-yl)piperazin-1-yl)methyl)pyrazolo[1,5-a]quinoxalin-4(5H)-one] was 42.3 nM.

Usually IC50 stands for the concentration at which inhibition is half-maximal.

Source of the values: patent US20250215013A1, “SUBSTITUTED TRICYCLIC COMPOUNDS AS PARP INHIBITORS AND THE USE THEREOF” (IMPACT THERAPEUTICS (SHANGHAI), INC., priority 2022, published 2025).
